Drawing on ChEMBL document CHEMBL3112458, “A biochemical screen for GroEL/GroES inhibitors” (Bioorg Med Chem Lett, 2014), this text covers IC50 for 35 molecules.

For assay [1], the target named is T1, E. coli GroEL/ES (Escherichia coli, UniProt P0A6F5). As to the kind of experiment: Inhibition of Escherichia coli GroEL/GroES expressed in Escherichia coli DH5alpha/BL21 (DE3) assessed as inhibition of denatured MDH refolding preincubated for 10 mins followed by ATP addition measured after 2 hrs by fluorescence based assay.
T1 sequence (P0A6F5 whole entry, looked up): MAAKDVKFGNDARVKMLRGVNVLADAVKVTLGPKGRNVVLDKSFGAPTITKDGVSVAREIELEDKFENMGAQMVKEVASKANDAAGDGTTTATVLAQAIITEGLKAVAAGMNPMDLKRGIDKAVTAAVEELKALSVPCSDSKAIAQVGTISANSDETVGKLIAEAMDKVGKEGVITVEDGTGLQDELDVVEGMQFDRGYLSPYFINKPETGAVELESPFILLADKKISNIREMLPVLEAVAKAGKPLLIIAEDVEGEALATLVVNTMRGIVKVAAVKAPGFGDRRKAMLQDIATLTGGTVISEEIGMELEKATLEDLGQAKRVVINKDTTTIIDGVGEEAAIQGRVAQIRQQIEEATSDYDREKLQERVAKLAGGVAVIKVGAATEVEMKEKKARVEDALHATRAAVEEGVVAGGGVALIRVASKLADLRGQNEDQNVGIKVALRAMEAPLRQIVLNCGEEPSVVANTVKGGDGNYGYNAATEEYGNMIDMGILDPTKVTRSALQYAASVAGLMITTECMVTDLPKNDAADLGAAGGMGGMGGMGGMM
A short description of assay [2]: Inhibition of pig heart MDH using […] as substrate. Also on record: species or system Sus scrofa.
The target of assay [3] is T1, E. coli GroEL/ES. As to the kind of experiment: Inhibition of Escherichia coli GroEL/GroES-ATPase activity expressed in Escherichia coli DH5alpha/BL21 (DE3) assessed as inhibition of denatured MDH refolding preincubated for 10 mins followed by ATP addition measured after 2 hrs by fluorescence based assay.

For the molecule `O=C1NC(=S)N(c2ccc(F)cc2)C(=O)/C1=C/c1ccco1`, the results for the IC50 (at E. coli GroEL/ES [1]; in assay [2]; on E. coli GroEL/ES [3]) were 1.2 µM, 20 µM and 25 µM, respectively.

With `O=C(NCCO)Nc1ccc2nc(-c3ccco3)c(-c3ccco3)nc2c1`, the IC50 (as a rule, the concentration that inhibits the measured activity by half) at E. coli GroEL/ES [1] was 23 µM; in assay [2] it was > 62.5 µM; on E. coli GroEL/ES [3], > 250 µM.

`O=C(Nc1ccc2nc(-c3ccco3)c(-c3ccco3)nc2c1)N1CCCC1`: the results for the half-inhibitory concentration (IC50) (on E. coli GroEL/ES [1]; in assay [2]; on E. coli GroEL/ES [3]) were 14 µM, > 62.5 µM and > 250 µM, respectively.

Consider `O=C(Nc1ccc(Sc2nc3ccccc3s2)c(Cl)c1)c1cc(Br)cc(Br)c1O`, for which the figures for the IC50 (at E. coli GroEL/ES [1]; in assay [2]; on E. coli GroEL/ES [3]) were 1.7 µM, 5.5 µM and 13 µM, respectively.

With `CNC(=O)Nc1ccc2nc(-c3ccco3)c(-c3ccco3)nc2c1`, the IC50 was 5.4 µM on E. coli GroEL/ES [1], > 62.5 µM in assay [2] and > 250 µM at E. coli GroEL/ES [3].

Turning to `Oc1ccc(NCn2nnc3ccccc32)cc1`, the IC50 at E. coli GroEL/ES [1] is 55 µM; in assay [2], > 62.5 µM; at E. coli GroEL/ES [3] it was 130 µM.

For the molecule `Cc1ccc(C)n1-c1ccc(O)c(C(=O)O)c1`, the half-maximal inhibitory concentration (IC50) on E. coli GroEL/ES [1] was 0.62 µM; in assay [2], > 62.5 µM; at E. coli GroEL/ES [3], > 250 µM.

In the case of `O=c1/c(=C/c2ccc(O)c(O)c2)sc2nc3ccccc3n12`, the IC50 on E. coli GroEL/ES [1] was 1.3 µM; in assay [2], > 62.5 µM; at E. coli GroEL/ES [3] it was 9.8 µM.

As to `Nc1ccc(Nc2nc(-c3ccc(O)c(O)c3)cs2)cc1`, the IC50 on E. coli GroEL/ES [1] is 5.9 µM; in assay [2] it was > 62.5 µM; on E. coli GroEL/ES [3], 23 µM.

Consider `Cc1ccc(S(=O)(=O)Nc2ccc(-c3nc4ccc(NS(=O)(=O)c5ccc(C)cc5)cc4[nH]3)cc2)cc1`, for which the IC50 was 0.11 µM on E. coli GroEL/ES [1], > 62.5 µM in assay [2] and 0.06 µM at E. coli GroEL/ES [3].

For `O=C(O)c1ccc(-c2nc(-c3ccc(-c4ccc(-c5nc(-c6ccc(C(=O)O)cc6)[nH]c5-c5ccccc5)cc4)cc3)c(-c3ccccc3)[nH]2)cc1`, the half-inhibitory concentration (IC50) was 0.44 µM at E. coli GroEL/ES [1], 57 µM in assay [2] and 25 µM at E. coli GroEL/ES [3].

As to `O=C1NC(=S)N(Cc2ccco2)C(=O)/C1=C\c1ccc(-c2ccc([N+](=O)[O-])cc2)o1`, the 50% inhibitory concentration (IC50) at E. coli GroEL/ES [1] was 0.7 µM; in assay [2], 19 µM; at E. coli GroEL/ES [3] it was 150 µM.

In the case of `O=C1/C(=C/c2ccc(O)c(O)c2)SC(=S)N1c1ccc(O)cc1`, the figures for the half-inhibitory concentration (IC50) (at E. coli GroEL/ES [1]; in assay [2]; at E. coli GroEL/ES [3]) were 0.99 µM, > 62.5 µM and 3.3 µM, respectively.

Take `O=C(/C=C/c1cccc([N+](=O)[O-])c1)c1ccc(NC(=O)c2ccco2)cc1`: the concentration for half-maximal inhibition (IC50) on E. coli GroEL/ES [1] is 1.8 µM; in assay [2], > 62.5 µM; on E. coli GroEL/ES [3], > 250 µM.

For `O=C(/C=C/c1ccc([N+](=O)[O-])cc1)c1ccc(O)c(O)c1`, the IC50 at E. coli GroEL/ES [1] is 2.4 µM; in assay [2], > 62.5 µM; on E. coli GroEL/ES [3] it was 71 µM.

`O=C(O)c1cccc2c1NC(c1cccc(Br)c1)C1CC=CC21` (stereo not given): the IC50 at E. coli GroEL/ES [1] worked out at 2.7 µM; in assay [2], 50 µM; on E. coli GroEL/ES [3], 44 µM.

Take `O=C(O)C1Nc2ccc(Cl)cc2C2C=CCC12` (stereo not given): the IC50 is 2.7 µM on E. coli GroEL/ES [1], > 62.5 µM in assay [2] and 68 µM on E. coli GroEL/ES [3].

As for `CN(C)c1ccc(/C=C2/C(=O)NC(=S)N(Cc3ccco3)C2=O)cc1`, the values for the IC50 (on E. coli GroEL/ES [1]; in assay [2]; at E. coli GroEL/ES [3]) were 5.9 µM, > 62.5 µM and 169 µM, respectively.

`Cc1ccc(/C=C2/SC(=S)N(c3ccc(C(=O)O)c(O)c3)C2=O)o1`: the IC50 at E. coli GroEL/ES [1] is 6.1 µM; in assay [2] it was > 62.5 µM; at E. coli GroEL/ES [3] it was 48 µM.

On to `Cn1c(=O)c(C(=O)Nc2ccncc2)c(O)c2ccccc21`, for which the IC50 on E. coli GroEL/ES [1] is 7.3 µM; in assay [2], > 62.5 µM; at E. coli GroEL/ES [3], > 250 µM.

In the case of `COC(=O)c1ccc(-c2ccc(/C=C3/SC(=S)NC3=O)o2)cc1`, the IC50 on E. coli GroEL/ES [1] is 8.4 µM; in assay [2], > 62.5 µM; at E. coli GroEL/ES [3] it was 131 µM.

`O=c1c([N+](=O)[O-])c(Cl)c2ccccc2n1Cc1ccccc1`: the IC50 at E. coli GroEL/ES [1] is 8.8 µM; in assay [2], > 62.5 µM; on E. coli GroEL/ES [3] it was > 250 µM.

For `O=C(O)c1cccc2c1NC(c1ccccc1F)C1CC=CC21` (stereo not given), the half-maximal inhibitory concentration (IC50) on E. coli GroEL/ES [1] was 9.1 µM; in assay [2], > 62.5 µM; at E. coli GroEL/ES [3], 95 µM.

`O=c1[nH]nc2cc(O)c3ccccc3n12`: the results for the IC50 (on E. coli GroEL/ES [1]; in assay [2]; at E. coli GroEL/ES [3]) were 11 µM, > 62.5 µM and > 250 µM, respectively.

`O=C(/C=C/c1ccco1)c1ccc(NC(=O)c2cccs2)cc1`: the IC50 on E. coli GroEL/ES [1] is 17 µM; in assay [2] it was > 62.5 µM; on E. coli GroEL/ES [3], 157 µM.

In the case of `CCOc1ccc(N2C(=O)NC(=O)/C(=C/c3ccc(O)c(O)c3)C2=O)cc1`, the IC50 was 24 µM at E. coli GroEL/ES [1], > 62.5 µM in assay [2] and 217 µM on E. coli GroEL/ES [3].

With `COc1cccc(/C=C2/SC(=S)N(CCC(=O)Nc3ccc(O)cc3)C2=O)c1`, the IC50 on E. coli GroEL/ES [1] is 33 µM; in assay [2], > 62.5 µM; on E. coli GroEL/ES [3], > 250 µM.

For the molecule `CNC(=O)Oc1c(Br)cc2sc(=O)oc2c1Br`, the concentration for half-maximal inhibition (IC50) at E. coli GroEL/ES [1] is 35 µM; in assay [2], > 62.5 µM; at E. coli GroEL/ES [3], 236 µM.

In the case of `O=C(Nc1cc([N+](=O)[O-])ccc1O)c1ccc2c(c1)C(=O)N(Cc1ccccc1)C2=O`, the IC50 on E. coli GroEL/ES [1] was 52 µM; in assay [2], > 62.5 µM; at E. coli GroEL/ES [3], > 250 µM.

Turning to `COc1ccc(C(=O)N/N=C/c2ccc(O)c3ncccc23)cc1`, the IC50 at E. coli GroEL/ES [1] was 70 µM; in assay [2], > 62.5 µM; at E. coli GroEL/ES [3], > 250 µM.

For `O=C(CC1Nc2cccc3cccc(c23)NC1=O)Nc1cccc([N+](=O)[O-])c1` (stereo not given), the IC50 was 97 µM on E. coli GroEL/ES [1], > 62.5 µM in assay [2] and 52 µM on E. coli GroEL/ES [3].

For `CC(=O)c1cc2c(cc1NC(=O)c1ccccc1Br)OCCO2`, the IC50 is > 100 µM at E. coli GroEL/ES [1], > 62.5 µM in assay [2] and > 250 µM on E. coli GroEL/ES [3].

Take `COc1cc(/C=C2/C(=N)N3N=C(CC(C)C)SC3=NC2=O)ccc1OC(=O)c1ccc(F)cc1`: the values for the IC50 (at E. coli GroEL/ES [1]; in assay [2]; on E. coli GroEL/ES [3]) were > 100 µM, > 62.5 µM and > 250 µM, respectively.

On to `Nc1nnc(SCC(=O)c2ccc(-c3ccccc3)cc2)s1`, for which the IC50 on E. coli GroEL/ES [1] was > 100 µM; in assay [2], > 62.5 µM; on E. coli GroEL/ES [3], > 250 µM.

As to `Cc1ccc(-c2ccc(NC(=O)/C=C/c3ccco3)cc2)o1`, the IC50 is > 100 µM at E. coli GroEL/ES [1], > 62.5 µM in assay [2] and > 250 µM at E. coli GroEL/ES [3].
